Assay results taken from ChEMBL document CHEMBL1921758, “Indole alkaloids and quassinoids from the stems of Brucea mollis” (J Nat Prod, 2011).

Key:
Assay type in all cases: functional, cell-based
A549 = assay: Cytotoxicity against human A549 cells by MTT assay
Bel-7402 = assay: Cytotoxicity against human Bel7402 cells by MTT assay
HCT-8 = assay: Cytotoxicity against human HCT8 cells by MTT assay
[1] = Cytotoxicity against human […] cells by MTT assay
A2780 = assay: Cytotoxicity against human A2780 cells by MTT assay

SMILES	IC50 (A549)	IC50 (Bel-7402)	IC50 (HCT-8)	IC50 [1]	IC50 (A2780)
CC1(C)c2[nH]c3ccccc3c2C(=O)[C@@H]1O[C@@H]1O[C@H](CO)[C@@H](O)[C@H](O)[C@H]1O [BRUCEOLLINE K]	> 10 µM	> 10 µM	> 10 µM	> 10 µM	> 10 µM
CC1=CC(=O)[C@@H](O)[C@]2(C)[C@H]3[C@@H](O)[C@H](O)[C@H](CO)[C@@H]4[C@@H](O)C(=O)O[C@H](C[C@@H]12)[C@@]43C (relative stereo)	> 10 µM	4.4 µM	3.36 µM	3 µM	> 10 µM
CC1(C)C(=O)C(=O)c2c1[nH]c1cc(O)ccc21 [BRUCEOLLINE H]	> 10 µM	> 10 µM	> 10 µM	> 10 µM	> 10 µM
CC(C)(O)[C@@H](O)Cc1cn([C@@H]2O[C@H](CO)[C@@H](O)[C@H](O)[C@H]2O)c2ccccc12 [BRUCEOLLINE F]	> 10 µM	> 10 µM	> 10 µM	> 10 µM	> 10 µM
CC1=CC(=O)[C@@H](O)[C@@]2(C)[C@H]1[C@@H](O)[C@H]1OC(=O)[C@H](O)[C@]3(O)[C@]14CO[C@]3(CO)[C@@H](O)[C@H](O)[C@H]24 [YADANZIOLIDE B]	3.8 µM	4.24 µM	3.33 µM	4.85 µM	> 10 µM
CC1(C)c2[nH]c3cc(O)ccc3c2C(=O)[C@@H]1O [BRUCEOLLINE I]	> 10 µM	> 10 µM	> 10 µM	> 10 µM	> 10 µM
CC1(C)C(=O)C(=O)c2c1[nH]c1ccccc21 [BRUCEOLLINE E]	> 10 µM	> 10 µM	> 10 µM	> 10 µM	> 10 µM
CC1=CC(=O)[C@@H](O)[C@]2(C)[C@H]3[C@@H](O)[C@H](O)[C@H](CO[C@@H]4O[C@H](CO)[C@@H](O)[C@H](O)[C@H]4O)[C@@H]4[C@@H](O)C(=O)O[C@H](C[C@@H]12)[C@@]43C [YADANZIOLIDE U]	> 10 µM	> 10 µM	> 10 µM	> 10 µM	> 10 µM
COc1cccc2c1C(=O)c1c(O)c3c(c(O)c1C2=O)C[C@@](O)(C(=O)CO)C[C@@H]3O[C@H]1C[C@H](N)[C@H](O)[C@H](C)O1 [DOXORUBICIN]	0.72 µM	0.53 µM	0.42 µM	0.98 µM	0.33 µM
CC(C)(O)C(=O)Cc1cn([C@@H]2O[C@H](CO)[C@@H](O)[C@H](O)[C@H]2O)c2ccccc12 [BRUCEOLLINE M]	> 10 µM	> 10 µM	> 10 µM	> 10 µM	> 10 µM
CC(C)(O)[C@@H](O)C[C@]1(O)C(=O)N([C@@H]2O[C@H](CO)[C@@H](O)[C@H](O)[C@H]2O)c2ccccc21 [BRUCEOLLINE N]	> 10 µM	> 10 µM	> 10 µM	> 10 µM	> 10 µM
CC(C)[C@@H](O)C(=O)c1c[nH]c2ccccc12 [BRUCEOLLINE L]	> 10 µM	> 10 µM	> 10 µM	> 10 µM	> 10 µM
CC1(C)c2[nH]c3ccccc3c2C(=O)[C@@H]1O [BRUCEOLLINE J]	> 10 µM	> 10 µM	> 10 µM	> 10 µM	> 10 µM
CC1=CC(=O)O[C@H]1[C@@]1(C)C[C@H]2OC(=O)[C@H](O)[C@H]3[C@@H](CO)[C@@H](O)[C@H](O)[C@H]1[C@]32C (relative stereo)	> 10 µM	> 10 µM	> 10 µM	> 10 µM	> 10 µM
CC1=CC(=O)[C@@H](O)[C@]2(C)[C@H]3[C@@H](O)[C@H](O)[C@]4(C)OC[C@@]35[C@@H](C[C@@H]12)OC(=O)[C@H](O)[C@]54O [BRUCEINE D]	> 10 µM	3.51 µM	5.81 µM	3.8 µM	> 10 µM
